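Following 48 hours of exposure in 96-well plates, responses at five concentrations were used to interpolate endpoints linearly. The concentration for 50% growth inhibition is given as GI50. TGI: total growth inhibition.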
Tests used:
Assay in all cases: NCI anticancer screen, dose series, 48 h
[1] = test system: K-562 leukemia
[2] = test system: NCI-H226 lung
[3] = test system: SK-OV-3 ovarian
[4] = test system: SF-295 CNS
[5] = test system: OVCAR-4 ovarian
[6] = test system: TK-10 renal
[7] = test system: MOLT-4 leukemia
[8] = test system: COLO 205 colon
[9] = test system: EKVX NSCLC
[10] = test system: T-47D breast

## Nn1c(=O)n(Cc2ccccc2)n(-c2ccccc2)c1=O
[1]
  TGI: > 100 µM
[2]
  TGI: > 100 µM
[3]
  TGI: > 100 µM
[4]
  TGI: > 100 µM
[5]
  TGI: > 100 µM
[6]
  TGI: > 100 µM
[7]
  TGI: > 100 µM

## O=C(Cc1ccccc1)NN1C(=O)C(Cl)C1c1cc(Br)ccc1O (stereo unspecified)
[8]
  TGI: > 100 µM
[1]
  TGI: 42.7 µM
[2]
  TGI: 69.7 µM
[3]
  TGI: 39 µM
[4]
  TGI: 94.3 µM
[5]
  TGI: > 100 µM
[6]
  TGI: > 100 µM
[9]
  TGI: 23.9 µM
[7]
  TGI: 8.07 µM

## COc1cc(C(C)O)c[n+](CCc2c[nH]c3ccccc23)c1 (stereo unspecified)
[8]
  TGI: > 100 µM
[1]
  TGI: > 100 µM
[4]
  TGI: > 100 µM
[5]
  TGI: > 100 µM
[6]
  TGI: > 100 µM
[9]
  TGI: > 100 µM
[7]
  TGI: > 100 µM

## CCOC(=O)C1=C(C)N(NC(=O)Nc2ccccc2)C(=O)C1=P(c1ccccc1)(c1ccccc1)c1ccccc1
[8]
  TGI: 56.4 µM
[1]
  TGI: > 100 µM
[2]
  TGI: > 100 µM
[3]
  TGI: > 100 µM
[4]
  TGI: > 100 µM
[5]
  TGI: > 100 µM
[6]
  TGI: > 100 µM
[9]
  TGI: > 100 µM
[7]
  TGI: 65.6 µM

## C1=CC2SSSC2C1 (stereo unspecified)
[8]
  TGI: > 100 µM
[1]
  TGI: > 100 µM
[2]
  TGI: > 100 µM
[3]
  TGI: > 100 µM
[4]
  TGI: > 100 µM
[5]
  TGI: > 100 µM
[6]
  TGI: > 100 µM
[9]
  TGI: > 100 µM
[7]
  TGI: > 100 µM

## COC(=O)/C(=N\Nc1nnc(C)n1N)C(C#N)c1ccc(Cl)cc1 (stereo unspecified)
[8]
  TGI: > 100 µM
[2]
  TGI: > 100 µM
[3]
  TGI: > 100 µM
[4]
  TGI: > 100 µM
[5]
  TGI: > 100 µM
[6]
  TGI: > 100 µM
[9]
  TGI: > 100 µM

## CCOC(=O)CC1(C(=O)OCC)c2[nH]c3ccccc3c2CCN1Cc1ccccc1 (stereo unspecified)
[8]
  TGI: 34.3 µM
[1]
  TGI: > 100 µM
[2]
  TGI: 35.5 µM
[3]
  TGI: > 100 µM
[4]
  TGI: 32.8 µM
[5]
  TGI: 55.2 µM
[6]
  TGI: > 100 µM
[9]
  TGI: 50.8 µM
[7]
  TGI: 49.1 µM

## O=C1CCN2C(=O)CCN12
[8]
  TGI: > 100 µM
[1]
  TGI: > 100 µM
[2]
  TGI: > 100 µM
[3]
  TGI: > 100 µM
[4]
  TGI: > 100 µM
[5]
  TGI: > 100 µM
[6]
  TGI: > 100 µM
[9]
  TGI: > 100 µM
[7]
  TGI: > 100 µM

## Cc1ccc(C2=C(c3ccccc3)C(Br)(c3ccc(C)cc3)C(c3ccccc3)=C2c2ccc(C)cc2)cc1
[8]
  TGI: > 100 µM
[1]
  TGI: > 100 µM
[3]
  TGI: > 100 µM
[4]
  TGI: > 100 µM
[5]
  TGI: > 100 µM
[6]
  TGI: > 100 µM
[9]
  TGI: > 100 µM
[7]
  TGI: > 100 µM

## COc1cc(C=C2C(=O)NC(=O)NC2=O)cc(OC)c1OC
[8]
  TGI: > 100 µM
[1]
  TGI: > 100 µM
[2]
  TGI: > 100 µM
[3]
  TGI: > 100 µM
[4]
  TGI: > 100 µM
[5]
  TGI: > 100 µM
[6]
  TGI: > 100 µM
[9]
  TGI: > 100 µM
[7]
  TGI: > 100 µM

## CN1c2ccc(Cl)cc2C(=O)NC1c1ccc([N+](=O)[O-])s1 (stereo unspecified)
[8]
  TGI: 66.4 µM
[1]
  TGI: 34.8 µM
[3]
  TGI: 67.2 µM
[4]
  TGI: 85.7 µM
[5]
  TGI: 71.5 µM
[6]
  TGI: 48.5 µM
[10]
  TGI: 55 µM
[9]
  TGI: 57.8 µM
[7]
  TGI: 33.7 µM

## Cc1nc(N)sc1C(=O)/C=C\c1ccc2c(c1)OCO2
[8]
  TGI: > 100 µM
[1]
  TGI: > 100 µM
[2]
  TGI: > 100 µM
[3]
  TGI: > 100 µM
[4]
  TGI: > 100 µM
[5]
  TGI: > 100 µM
[6]
  TGI: > 100 µM
[9]
  TGI: > 100 µM
[7]
  TGI: > 100 µM

## COC(=O)C1=C(C)N(NC(=O)OC(C)(C)C)C(=O)C1=P(c1ccccc1)(c1ccccc1)c1ccccc1
[8]
  TGI: > 100 µM
[1]
  TGI: > 100 µM
[2]
  TGI: > 100 µM
[3]
  TGI: > 100 µM
[4]
  TGI: > 100 µM
[5]
  TGI: > 100 µM
[6]
  TGI: > 100 µM
[9]
  TGI: > 100 µM
[7]
  TGI: > 100 µM

## OC[C@H]1CCCC1O (stereo partly specified)
[8]
  TGI: > 100 µM
[1]
  TGI: > 100 µM
[2]
  TGI: > 100 µM
[4]
  TGI: > 100 µM
[5]
  TGI: > 100 µM
[6]
  TGI: > 100 µM
[10]
  TGI: > 100 µM
[7]
  TGI: > 100 µM

## Clc1ccc(C2=Nn3c(COc4ccccc4Cl)nnc3SC2)c(Cl)c1
[8]
  GI50: 14.7 µM
  TGI: 33.5 µM
[2]
  GI50: 14.6 µM
  TGI: 41.6 µM
[3]
  GI50: 28.1 µM
  TGI: 86.3 µM
[4]
  GI50: 10.3 µM
  TGI: 87 µM
[5]
  GI50: 26.9 µM
  TGI: > 100 µM
[6]
  GI50: 26.5 µM
  TGI: 95.4 µM
[10]
  GI50: 14 µM
  TGI: 51.5 µM
[9]
  GI50: 23.7 µM
  TGI: 80.8 µM
[7]
  GI50: 22.3 µM
  TGI: > 100 µM

## Cc1cn(C2CC(O)C(CO)O2)c(=O)n2nnnc12 (stereo unspecified)
[8]
  TGI: > 100 µM
[1]
  TGI: > 100 µM
[2]
  TGI: > 100 µM
[3]
  TGI: > 100 µM
[4]
  TGI: > 100 µM
[5]
  TGI: > 100 µM
[6]
  TGI: > 100 µM
[9]
  TGI: > 100 µM
[7]
  TGI: > 100 µM

## Cc1cc(Cl)ccc1N=C1NC(=O)C(CC(=O)Nc2ccc([N+](=O)[O-])cc2[N+](=O)[O-])S1 (stereo unspecified)
[8]
  TGI: > 100 µM
[1]
  TGI: > 100 µM
[3]
  TGI: 55 µM
[4]
  TGI: 59.5 µM
[5]
  TGI: 56.3 µM
[6]
  TGI: > 100 µM
[9]
  TGI: > 100 µM
[7]
  TGI: 55.5 µM

## CCC[CH2][Sn]1([CH2]CCC)[O]CC(CN2CCCC2)[O]1 (stereo unspecified)
[8]
  GI50: 18.3 µM
  TGI: 34.3 µM
[1]
  GI50: 4.24 µM
  TGI: 21.4 µM
[2]
  GI50: 21.9 µM
  TGI: 64.1 µM
[3]
  GI50: 37 µM
  TGI: > 100 µM
[4]
  GI50: 14.5 µM
  TGI: 28.2 µM
[5]
  GI50: 14.4 µM
  TGI: 28.5 µM
[6]
  GI50: 12 µM
  TGI: 24.3 µM
[9]
  GI50: 12.9 µM
  TGI: 33.2 µM
[7]
  GI50: 14.3 µM
  TGI: 50.4 µM

## NCCCCN(CCCN)/[N+]([O-])=N\O
[8]
  TGI: > 100 µM
[1]
  TGI: > 100 µM
[2]
  TGI: > 100 µM
[3]
  TGI: > 100 µM
[4]
  TGI: > 100 µM
[5]
  TGI: > 100 µM
[7]
  TGI: > 100 µM

## C[C@@H]1CC(=O)C2CCCC1C2=O (stereo partly specified)
[8]
  TGI: > 100 µM
[2]
  TGI: > 100 µM
[3]
  TGI: > 100 µM
[4]
  TGI: > 100 µM
[5]
  TGI: > 100 µM
[6]
  TGI: > 100 µM
[9]
  TGI: > 100 µM
[7]
  TGI: > 100 µM

## COc1cc2c(cc1OC)C(CC(=O)NN=C(C)C)NCC2 (stereo unspecified)
[8]
  TGI: > 100 µM
[1]
  TGI: > 100 µM
[2]
  TGI: > 100 µM
[3]
  TGI: > 100 µM
[4]
  TGI: > 100 µM
[5]
  TGI: > 100 µM
[6]
  TGI: > 100 µM
[9]
  TGI: > 100 µM
[7]
  TGI: > 100 µM

## CC(=O)[O-].CCN(CC)c1ccc(C=NCCN=Cc2ccc(N(CC)CC)cc2[O-])c([O-])c1.[Mn+3]
[8]
  GI50: 18.6 µM
  TGI: 32.8 µM
[1]
  GI50: 22.9 µM
  TGI: 61.3 µM
[2]
  GI50: 64.4 µM
  TGI: > 100 µM
[4]
  GI50: 27.7 µM
  TGI: 71.8 µM
[5]
  GI50: 37.3 µM
  TGI: > 100 µM
[6]
  GI50: 56.6 µM
  TGI: > 100 µM
[9]
  GI50: 39.6 µM
  TGI: > 100 µM
[7]
  GI50: 36.5 µM
  TGI: > 100 µM

— PubChem BioAssay (NCI)
